pIC50: −log10 of the molar value.

From patent US7842808B2, “Anti-migraine spirocycles” (Bristol-Myers Squibb Company, priority 2002, dated 2010) come the findings set out here.

In one experiment the target is T1, CGRP receptor (SK-N-MC cell membranes) (Homo sapiens, UniProt O60894+Q16602).
T1 construct: endogenous in cells; host or cells: SK-N-MC cells (membrane homogenate)
T1 sequence (Q16602 23-461): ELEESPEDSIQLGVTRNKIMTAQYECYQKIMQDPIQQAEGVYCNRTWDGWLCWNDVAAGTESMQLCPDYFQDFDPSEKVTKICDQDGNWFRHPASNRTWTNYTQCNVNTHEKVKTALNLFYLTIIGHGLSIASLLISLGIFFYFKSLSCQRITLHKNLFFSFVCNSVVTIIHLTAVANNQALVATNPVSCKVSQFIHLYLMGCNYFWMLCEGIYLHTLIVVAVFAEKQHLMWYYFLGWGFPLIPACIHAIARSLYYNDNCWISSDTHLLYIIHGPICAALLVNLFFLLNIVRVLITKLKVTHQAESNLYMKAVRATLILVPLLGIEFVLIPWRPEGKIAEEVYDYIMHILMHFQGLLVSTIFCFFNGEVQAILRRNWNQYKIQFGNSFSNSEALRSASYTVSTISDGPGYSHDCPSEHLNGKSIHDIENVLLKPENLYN
T1 sequence (O60894 27-148): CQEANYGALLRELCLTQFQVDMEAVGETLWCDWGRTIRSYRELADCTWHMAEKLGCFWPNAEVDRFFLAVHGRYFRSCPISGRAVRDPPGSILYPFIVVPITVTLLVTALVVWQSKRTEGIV
Description: CGRP Binding Assay ([125I]-CGRP radioligand binding, SK-N-MC homogenate).
Conditions: not given
The method, then:
Tissue Culture. SK-N-MC cells were grown at 37° C. in 5% CO2 as a monolayer in medium consisting of MEM with Earle's salts and L-glutamine (Gibco) supplemented with 10% fetal bovine serum (Gibco).
Cell Pellets. […] The cells were transferred from plates to polypropylene tubes (16×100 mm) and homogenized using a polytron. Homogenates were centrifuged at 32,000×g for 30 min. The pellets were resuspended in cold hypotonic lysis buffer with 0.1% mammalian protease inhibitor cocktail (Sigma) and assayed for protein concentration. The SK-N-MC homogenate was then aliquoted and stored at −80° C. until needed.
Radioligand Binding Assay. The compounds of invention were solubilized and carried through serial dilutions using 100% DMSO. Aliquots from the compound serial dilutions were further diluted 25 fold into assay buffer (50 mM Tris-Cl pH 7.5, 5 mM MgCl2, 0.005% Triton X-100) and transferred (volume 50 μl) into 96 well assay plates. […] SK-N-MC pellets were thawed, diluted in assay buffer with fresh 0.1% mammalian protease inhibitor cocktail (Sigma), and homogenized again. SK-N-MC homogenate (5 μg/well) was added in a volume of 100 μl. The assay plates were then incubated at room temperature for 2 h. Assays were stopped by addition of excess cold wash buffer (20 mM Tris-Cl pH 7.5, 0.1% BSA) immediately followed by filtration over glass fiber filters (Whatman GF/B) previously soaked in 0.5% PEI. Non-specific binding was defined with 1 μM beta-CGRP. Protein bound radioactivity was determined using a gamma or scintillation counter.
Compound `O=C1Nc2ccccc2C2(CCN(C(=O)CC(Cc3ccc4[nH]ncc4c3)C(=O)N3CCC4(CC3)OCCO4)CC2)O1` (racemic) [Example 80, (±)-1-(1,4-Dioxa-8-aza-spiro[4.5]dec-8-yl)-2-(1H-indazol-5-ylmethyl)-4-[1′,2′-dihydro-2′-oxospiro-[4H-3′,1-benzoxazine-4,4′-piperidinyl]-butane-1,4-dione] showed a pIC50 of 6.00 to 7.00.

The experiment is the same for the next values; noted with them: displacement of [125I]-CGRP, SK-N-MC homogenate; read-out: CGRP binding IC50.
Consider `COc1ncc(CC(NC(=O)N2CCC(N3Cc4ccccc4NC3=O)CC2)C(=O)N2CCC(N3CCCCC3)CC2)cn1` (racemic) [Example 58, (±)-4-(2-Oxo-1,4-dihydro-2H-quinazolin-3-yl)-piperidine-1-carboxylic acid[2-[1,4′]bipiperidinyl-1′-yl-1-(2-methoxy-pyrimidin-5-ylmethyl)-2-oxo-ethyl]-amide], for which the pIC50 was under 6.00.
Regarding `O=C(Nc1cc(Cl)ccc1Cl)N[C@@H](CC(=O)N1CCC(N2Cc3ccccc3NC2=O)CC1)C(=O)N1CCC(N2CCCCC2)CC1` [Example 173], the pIC50 was 6.00 to 7.00.
On to `CCOc1ccc(NC(=O)N[C@@H](CC(=O)N2CCC(N3Cc4ccccc4NC3=O)CC2)C(=O)N2CCC(N3CCCCC3)CC2)cc1` [Example 189], for which the pIC50 was 6.00 to 7.00.
Turning to `COc1ccc(Cl)cc1NC(=O)N[C@@H](CC(=O)N1CCC(N2Cc3ccccc3NC2=O)CC1)C(=O)N1CCC(N2CCCCC2)CC1` [Example 187], the pIC50 is 6.00 to 7.00.
On to `O=C(N[C@@H](CC(=O)N1CCC(N2Cc3ccccc3NC2=O)CC1)C(=O)N1CCC(N2CCCCC2)CC1)c1cccc(Cl)c1` [Example 129], for which the pIC50 is 6.00 to 7.00.
For the compound `Cc1ccc(OC(=O)N[C@@H](CC(=O)N2CCC(N3Cc4ccccc4NC3=O)CC2)C(=O)N2CCC(N3CCCCC3)CC2)cc1` [Example 132], the negative logarithm of the IC50 (pIC50) is 6.00 to 7.00.
Regarding `COc1ccc(CC(NC(=O)N2CCC(N3Cc4ccccc4NC3=O)CC2)C(=O)N2CCC(N3CCCCC3)CC2)cn1` (racemic) [Example 57, (±)-4-(2-Oxo-1,4-dihydro-2H-quinazolin-3-yl)-piperidine-1-carboxylic acid[2-[1,4′]bipiperidinyl-1′-yl-1-(6-methoxy-pyridin-3-ylmethyl)-2-oxo-ethyl]-amide], the pIC50 is 6.00 to 7.00.
As for `COc1cc(C(=O)N[C@@H](CC(=O)N2CCC(N3Cc4ccccc4NC3=O)CC2)C(=O)N2CCC(N3CCCCC3)CC2)cc(OC)c1OC` [Example 128], the negative logarithm of the IC50 (pIC50) was 6.00 to 7.00.
On to `Cc1ccc(NC(=O)N[C@@H](CC(=O)N2CCC(N3Cc4ccccc4NC3=O)CC2)C(=O)N2CCC(N3CCCCC3)CC2)cc1C` [Example 158], for which the pIC50 is 7.00 to 8.00.
As to `CCc1cccc(NC(=O)N[C@@H](CC(=O)N2CCC(N3Cc4ccccc4NC3=O)CC2)C(=O)N2CCC(N3CCCCC3)CC2)c1` [Example 142], the pIC50 is 6.00 to 7.00.
Turning to `O=C(Nc1ccccc1Cl)N[C@@H](CC(=O)N1CCC(N2Cc3ccccc3NC2=O)CC1)C(=O)N1CCC(N2CCCCC2)CC1` [Example 172], the negative logarithm of the IC50 (pIC50) is 7.00 to 8.00.
Regarding `CCc1cc(CC(NC(=O)N2CCC(N3Cc4ccccc4NC3=O)CC2)C(=O)OC)cc2cn[nH]c12` (racemic) [Example 44, (±)-3-(7-Ethyl-1H-indazol-5-yl)-2-{[4-(2-oxo-1,4-dihydro-2H-quinazolin-3-yl)-piperidine-1-carbonyl]-amino}-propionic acid methyl ester], the negative-log IC50 (pIC50) was 6.00 to 7.00.
Still for that read-out and setting: as for `Cc1cc(Br)ccc1NC(=O)N[C@@H](CC(=O)N1CCC(N2Cc3ccccc3NC2=O)CC1)C(=O)N1CCC(N2CCCCC2)CC1` [Example 194], the figure is 6.00 to 7.00; as for `CC(=O)N[C@@H](CC(=O)N1CCC(N2Cc3ccccc3NC2=O)CC1)C(=O)N1CCC(N2CCCCC2)CC1` [Example 120], 6.00 to 7.00.
Take `O=C(OCc1ccccc1C(=O)N[C@@H](CC(=O)N1CCC(N2Cc3ccccc3NC2=O)CC1)C(=O)N1CCC(N2CCCCC2)CC1)c1ccccc1` [Example 118]: the negative-log IC50 (pIC50) was 6.00 to 7.00.
On to `COc1ccc(NC(=O)N[C@@H](CC(=O)N2CCC(N3Cc4ccccc4NC3=O)CC2)C(=O)N2CCC(N3CCCCC3)CC2)c(OC)c1` [Example 155], for which the negative logarithm of the IC50 (pIC50) was 6.00 to 7.00.
Regarding `O=C(Nc1ccc(F)cc1F)N[C@@H](CC(=O)N1CCC(N2Cc3ccccc3NC2=O)CC1)C(=O)N1CCC(N2CCCCC2)CC1` [Example 156], the pIC50 is 6.00 to 7.00.
Same read-out and setting: with `O=C(Nc1cccc2ccccc12)N[C@@H](CC(=O)N1CCC(N2Cc3ccccc3NC2=O)CC1)C(=O)N1CCC(N2CCCCC2)CC1` [Example 137] the figure was 6.00 to 7.00.
Regarding `Cc1cc(CC(NC(=O)N2CCC(N3Cc4ccccc4NC3=O)CC2)C(=O)O[C@H](C)c2ccncc2)cc2cn[nH]c12` (stereo partly drawn) [Example 41e, 3-(7-Methyl-1H-indazol-5-yl)-2-{[4-(2-oxo-1,4-dihydro-2H-quinazolin-3-yl)-piperidine-1-carbonyl]-amino}-propionic acid (R)-1-pyridin-4-yl-ethyl ester], the pIC50 was over 8.00.
Same read-out and setting: with `O=C(NC(Cc1ccc2[nH]ncc2c1)C(=O)N1CCN(Cc2ccco2)CC1)N1CCC(N2Cc3ccccc3NC2=O)CC1` (stereo not drawn) [Example 40e] the figure was under 6.00; with `O=C(NC(Cn1ccc(O)cc1=O)C(=O)N1CCC(N2CCCCC2)CC1)N1CCC(N2Cc3ccccc3NC2=O)CC1` (racemic) [Example 52, (±)-4-(2-Oxo-1,4-dihydro-2H-quinazolin-3-yl)-piperidine-1-carboxylic acid[2-[1,4′]bipiperidinyl-1′-yl-1-(4-hydroxy-2-oxo-2H-pyridin-1-ylmethyl)-2-oxo-ethyl]-amide], under 6.00.
On to `O=C(Nc1ccccc1Oc1ccccc1)N[C@@H](CC(=O)N1CCC(N2Cc3ccccc3NC2=O)CC1)C(=O)N1CCC(N2CCCCC2)CC1` [Example 136], for which the pIC50 is 6.00 to 7.00.
As to `COc1ccc(CC(=O)N[C@@H](CC(=O)N2CCC(N3Cc4ccccc4NC3=O)CC2)C(=O)N2CCC(N3CCCCC3)CC2)cc1OC` [Example 109], the pIC50 is 6.00 to 7.00.
Regarding `O=C(COc1ccc(Cl)cc1)N[C@@H](CC(=O)N1CCC(N2Cc3ccccc3NC2=O)CC1)C(=O)N1CCC(N2CCCCC2)CC1` [Example 112], the pIC50 was 6.00 to 7.00.
As for `O=C(N[C@@H](CC(=O)N1CCC(N2Cc3ccccc3NC2=O)CC1)C(=O)N1CCC(N2CCCCC2)CC1)c1cccs1` [Example 116], the negative logarithm of the IC50 (pIC50) was 6.00 to 7.00.
On the same count and under the same terms, with `COC(=O)[C@@H](Cc1ccc2[nH]nnc2c1)NC(=O)N1CCC(N2Cc3ccccc3NC2=O)CC1` [Example 48, (R)-3-(1H-Benzotriazol-5-yl)-2-{[4-(2-oxo-1,4-dihydro-2H-quinazolin-3-yl)-piperidine-1-carbonyl]-amino}-propionic acid methyl ester] the figure was under 6.00.
Take `O=C(Nc1cc(Cl)cc(Cl)c1)N[C@@H](CC(=O)N1CCC(N2Cc3ccccc3NC2=O)CC1)C(=O)N1CCC(N2CCCCC2)CC1` [Example 159]: the pIC50 was 7.00 to 8.00.
Regarding `O=C(N[C@@H](CC(=O)N1CCC(N2Cc3ccccc3NC2=O)CC1)C(=O)N1CCC(N2CCCCC2)CC1)N[C@@H]1C[C@H]1c1ccccc1` [Example 154], the pIC50 was 6.00 to 7.00.
Still for that read-out and setting: with `CC(C)(C)OC(=O)N[C@@H](CC(=O)N1CCC(N2Cc3ccccc3NC2=O)CC1)C(=O)N1CCC(N2CCCCC2)CC1` [Example 85, (L)-{1-([1,4′]Bipiperidinyl-1′-carbonyl)-3-oxo-3-[4-(2-oxo-1,4-dihydro-2H-quinazolin-3-yl)-piperidin-1-yl]-propyl}-carbamic acid tert-butyl ester] the figure was 6.00 to 7.00; with `O=C(Cc1ccccc1)N[C@@H](CC(=O)N1CCC(N2Cc3ccccc3NC2=O)CC1)C(=O)N1CCC(N2CCCCC2)CC1` [Example 106], 6.00 to 7.00; with `O=C(N[C@@H](CC(=O)N1CCC(N2Cc3ccccc3NC2=O)CC1)C(=O)N1CCC(N2CCCCC2)CC1)c1ccc(O)cc1` [Example 100, (L)-N-{1-([1,4′]Bipiperidinyl-1′-carbonyl)-3-oxo-3-[4-(2-oxo-1,4-dihydro-2H-quinazolin-3-yl)-piperidin-1-yl]-propyl}-4-hydroxy-benzamide], 6.00 to 7.00.
As to `O=C(N[C@@H](CC(=O)N1CCC(N2Cc3ccccc3NC2=O)CC1)C(=O)N1CCC(N2CCCCC2)CC1)c1cc[nH]n1` [Example 101, (L)-1H-Pyrazole-3-carboxylic acid{1-([1,4′]bipiperidinyl-1′-carbonyl)-3-oxo-3-[4-(2-oxo-1,4-dihydro-2H-quinazolin-3-yl)-piperidin-1-yl]-propyl}-amide], the negative-log IC50 (pIC50) is under 6.00.
As for `CCCN1CCN(C(=O)C(Cc2ccc3[nH]ncc3c2)NC(=O)N2CCC(N3Cc4ccccc4NC3=O)CC2)CC1` (stereo not drawn) [Example 40d], the pIC50 was 6.00 to 7.00.
Turning to `O=C(Nc1cc(F)ccc1F)N[C@@H](CC(=O)N1CCC(N2Cc3ccccc3NC2=O)CC1)C(=O)N1CCC(N2CCCCC2)CC1` [Example 184], the pIC50 is 7.00 to 8.00.
Still for that read-out and setting: with `Cc1cc(CC(NC(=O)N2CCC3(CC2)OC(=O)Nc2ccccc23)C(=O)N2CCN(c3ccncc3)CC2)cc2cn[nH]c12` (racemic) [Example 29, (±)-1′,2′-Dihydro-2′-oxospiro-[4H-3′,1-benzoxazine-4,4′-piperidine-1-carboxylic acid[1-(7-methyl-1H-indazol-5-ylmethyl)-2-oxo-2-(4-pyridin-4-yl-piperazin-1-yl)-ethyl]-amide] the figure was over 8.00.
